Assay results: PubChem BioAssay (NCI)
“And” between values parts separate entries of the source, which are not always exact repeats. Equal entries are not always repeated.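 The compound was tested at five concentrations on cells cultured in 96-well plates, with a 48-hour exposure period. Abbreviation: GI50, concentration required for 50% inhibition of growth. At the TGI there is no net growth.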

Tests used:
Experiment in all cases: DTP human tumour cell line panel, 48 h
CCRF-CEM leukemia = test system: CCRF-CEM leukemia
COLO 205 colon = test system: COLO 205 colon
EKVX NSCLC = test system: EKVX NSCLC
HCC-2998 colon = test system: HCC-2998 colon
HOP-92 NSCLC = test system: HOP-92 NSCLC
NCI-H23 lung = test system: NCI-H23 lung
OVCAR-5 ovarian = test system: OVCAR-5 ovarian
SF-295 CNS = test system: SF-295 CNS
SF-539 CNS = test system: SF-539 CNS
UACC-257 melanoma = test system: UACC-257 melanoma

O=C(Nc1ccc(F)cc1)C(=O)C(C1OC(=O)c2ccccc21)[N+](=O)[O-] (configuration not stated)
TGI (CCRF-CEM leukemia): > 100 µM
TGI (COLO 205 colon): > 100 µM
TGI (EKVX NSCLC): > 100 µM
TGI (HCC-2998 colon): > 100 µM
TGI (HOP-92 NSCLC): > 100 µM
TGI (NCI-H23 lung): > 100 µM
TGI (OVCAR-5 ovarian): > 100 µM
TGI (SF-295 CNS): > 100 µM
TGI (SF-539 CNS): > 100 µM
TGI (UACC-257 melanoma): > 100 µM

C=CCC(C(=O)O)c1ccccc1 (configuration not stated)
TGI (CCRF-CEM leukemia): > 100 µM
TGI (COLO 205 colon): > 100 µM
TGI (EKVX NSCLC): > 100 µM
TGI (HCC-2998 colon): > 100 µM
TGI (HOP-92 NSCLC): > 100 µM
TGI (NCI-H23 lung): > 100 µM
TGI (OVCAR-5 ovarian): > 100 µM
TGI (SF-295 CNS): > 100 µM
TGI (SF-539 CNS): > 100 µM
TGI (UACC-257 melanoma): > 100 µM

COC(=O)C12C3C4C5C3(C#N)C1C5(C(=O)OC)C42C(=O)N(C(C)C)C(C)C (configuration not stated)
TGI (CCRF-CEM leukemia): > 67.5 µM
TGI (COLO 205 colon): > 100 µM
TGI (EKVX NSCLC): > 100 µM
TGI (HCC-2998 colon): > 100 µM
TGI (HOP-92 NSCLC): > 100 µM
TGI (NCI-H23 lung): > 100 µM
TGI (OVCAR-5 ovarian): > 100 µM
TGI (SF-295 CNS): > 100 µM
TGI (SF-539 CNS): > 100 µM
TGI (UACC-257 melanoma): > 100 µM

C=CCN1C=CC(=O)[C@H](O[Si](C)(C)C(C)(C)C)[C@@H]1/C=C/c1ccccc1
GI50 (CCRF-CEM leukemia): 15200 nM
TGI (CCRF-CEM leukemia): 40.1 µM
GI50 (COLO 205 colon): 4390 nM
TGI (COLO 205 colon): 16.2 µM
GI50 (EKVX NSCLC): 14000 nM
TGI (EKVX NSCLC): 40.7 µM
GI50 (HCC-2998 colon): 16200 nM
TGI (HCC-2998 colon): 30.3 µM
GI50 (HOP-92 NSCLC): 7050 nM
TGI (HOP-92 NSCLC): 21.1 µM
GI50 (NCI-H23 lung): 13800 nM
TGI (NCI-H23 lung): 27.9 µM
GI50 (OVCAR-5 ovarian): 17500 nM
TGI (OVCAR-5 ovarian): 31.9 µM
GI50 (SF-295 CNS): 9900 nM
TGI (SF-295 CNS): 24.9 µM
GI50 (SF-539 CNS): 16000 nM
TGI (SF-539 CNS): 30.1 µM
GI50 (UACC-257 melanoma): 17900 nM
TGI (UACC-257 melanoma): 37.2 µM

Cc1ccc(C(=O)C(Cl)C(Cl)c2ccc(C)cc2)cc1 (configuration not stated)
TGI (CCRF-CEM leukemia): 4.28 µM
TGI (COLO 205 colon): 4.1 µM
TGI (EKVX NSCLC): 19.5 µM
TGI (HCC-2998 colon): 3.92 µM
TGI (HOP-92 NSCLC): 5.24 µM
TGI (NCI-H23 lung): 23.9 µM
TGI (OVCAR-5 ovarian): 33 µM
TGI (SF-295 CNS): 23.7 µM
TGI (SF-539 CNS): 6.38 µM
TGI (UACC-257 melanoma): 4.48 µM

O=c1[nH]ccc2nc(N3CCC(O)CC3)nc(Nc3cccc(C(F)(F)F)c3)c12
GI50 (CCRF-CEM leukemia): 2100 nM
TGI (CCRF-CEM leukemia): > 100 µM
GI50 (COLO 205 colon): 3080 nM
TGI (COLO 205 colon): 14.5 µM
GI50 (EKVX NSCLC): 2850 nM
TGI (EKVX NSCLC): 12.1 µM
GI50 (HCC-2998 colon): 11200 nM
TGI (HCC-2998 colon): 38.4 µM
GI50 (HOP-92 NSCLC): > 100000 nM
TGI (HOP-92 NSCLC): > 100 µM
GI50 (NCI-H23 lung): 3240 nM
TGI (NCI-H23 lung): 13.9 µM
GI50 (OVCAR-5 ovarian): 28300 nM
TGI (OVCAR-5 ovarian): 94.3 µM
GI50 (SF-295 CNS): 2940 nM
TGI (SF-295 CNS): 7.85 µM
GI50 (SF-539 CNS): 5190 nM
TGI (SF-539 CNS): 38.6 µM
GI50 (UACC-257 melanoma): 4240 nM
TGI (UACC-257 melanoma): 13 µM

COc1c(Cl)c2c(c(OC)c1OC)-c1ccc(SC)c(=O)cc1[C@@H](NC(=O)OCC(F)(F)F)CC2
GI50 (CCRF-CEM leukemia): < 10 nM
TGI (CCRF-CEM leukemia): > 100 µM
GI50 (COLO 205 colon): < 10 nM
TGI (COLO 205 colon): 0.0314 µM
GI50 (EKVX NSCLC): < 10 nM
TGI (EKVX NSCLC): > 100 µM
GI50 (HCC-2998 colon): < 10 nM
TGI (HCC-2998 colon): 3.99 µM
GI50 (HOP-92 NSCLC): < 17.9 nM
TGI (HOP-92 NSCLC): 7.03 µM
GI50 (NCI-H23 lung): < 10 nM
TGI (NCI-H23 lung): > 100 µM
GI50 (OVCAR-5 ovarian): < 10 nM
TGI (OVCAR-5 ovarian): > 100 µM
GI50 (SF-295 CNS): < 10 nM
TGI (SF-295 CNS): 2.98 µM
GI50 (SF-539 CNS): < 10 nM
TGI (SF-539 CNS): < 0.01 µM
GI50 (UACC-257 melanoma): 9610 nM
TGI (UACC-257 melanoma): > 100 µM

CN(C)C1CCN(C(=O)c2ccc(NC(=O)Nc3ccc(-c4nc(N5CCOCC5)nc(N5CCOCC5)n4)cc3)cc2)CC1
GI50 (CCRF-CEM leukemia): 21.7 nM and 49.1 nM and 104 nM
GI50 (COLO 205 colon): 13.6 nM and 33.4 nM and 12 nM
TGI (COLO 205 colon): 0.155 µM and 0.545 µM and 0.188 µM
GI50 (EKVX NSCLC): 15.8 nM and 20.3 nM and 40.4 nM
GI50 (HCC-2998 colon): 11.8 nM and 24 nM and 10.2 nM
TGI (HCC-2998 colon): 0.839 µM and 2.5 µM and 1.03 µM
GI50 (HOP-92 NSCLC): < 10 nM and 6.27 nM and 13.8 nM
TGI (HOP-92 NSCLC): 0.0288 µM and 0.0544 µM and 0.116 µM
GI50 (NCI-H23 lung): 36.8 nM and 29.7 nM and 73.2 nM
TGI (NCI-H23 lung): 15.7 µM and 2.5 µM and 2.3 µM
GI50 (OVCAR-5 ovarian): 16.7 nM and 31.7 nM and 16.6 nM
TGI (OVCAR-5 ovarian): 0.325 µM and 2.5 µM and 0.331 µM
GI50 (SF-295 CNS): 73.2 nM and 71.1 nM and 639 nM
TGI (SF-295 CNS): 0.577 µM and 0.502 µM and 3.52 µM
GI50 (SF-539 CNS): < 12.9 nM and 14.3 nM and 41.6 nM
GI50 (UACC-257 melanoma): 28.9 nM and 63.3 nM and 26.6 nM
TGI (UACC-257 melanoma): 0.151 µM and 0.386 µM and 0.243 µM

C1CCN(C2OC3C(COC3N3CCCCC3)OC2OC2CCO[C@@H]2N2CCCCC2)CC1 (some centres not stated)
TGI (CCRF-CEM leukemia): 40.4 µM
TGI (COLO 205 colon): > 100 µM
TGI (EKVX NSCLC): > 100 µM
TGI (HCC-2998 colon): > 100 µM
TGI (HOP-92 NSCLC): 47.5 µM
TGI (NCI-H23 lung): 78.6 µM
TGI (OVCAR-5 ovarian): > 100 µM
TGI (SF-295 CNS): > 100 µM
TGI (SF-539 CNS): 46.8 µM
TGI (UACC-257 melanoma): 88.1 µM

C=C1C(=O)[C@@]23CC1C(O)[C@@H](OC(C)=O)[C@@H]2C1(C)C(OC(C)=O)C[C@@H](OC(C)=O)C(C)(C)[C@@H]1C[C@H]3OC(C)=O (some centres not stated)
GI50 (CCRF-CEM leukemia): 361 nM and 0.239 µg/mL
TGI (CCRF-CEM leukemia): 1.9 µM and 5.21 µg/mL
GI50 (COLO 205 colon): 1.69 µM and 1.72 µg/mL
TGI (COLO 205 colon): 3.15 µM and 3.26 µg/mL
GI50 (EKVX NSCLC): > 10 µM and 16.8 µg/mL
TGI (EKVX NSCLC): > 10 µM and 35.6 µg/mL
GI50 (HCC-2998 colon): 17.3 µg/mL
TGI (HCC-2998 colon): > 10 µM and 31.3 µg/mL
GI50 (HOP-92 NSCLC): 3.6 µM and 1.95 µg/mL
TGI (HOP-92 NSCLC): > 10 µM and 3.84 µg/mL
GI50 (NCI-H23 lung): 7.86 µM and 2.63 µg/mL
TGI (NCI-H23 lung): > 10 µM and 7.68 µg/mL
GI50 (OVCAR-5 ovarian): > 10 µM and 7.32 µg/mL
TGI (OVCAR-5 ovarian): > 10 µM and 16 µg/mL
GI50 (SF-295 CNS): > 10 µM and 11.6 µg/mL
TGI (SF-295 CNS): > 10 µM and 25.6 µg/mL
GI50 (SF-539 CNS): 1.69 µM and 3.73 µg/mL
TGI (SF-539 CNS): 3.7 µM and 11.6 µg/mL
GI50 (UACC-257 melanoma): 3.55 µM and 2.25 µg/mL
TGI (UACC-257 melanoma): > 10 µM and 5.06 µg/mL

COC(=O)c1c2c(c(C)[n+]([O-])c1C)C(=O)C=C(NCc1ccc(OC)cc1)C2=O
GI50 (CCRF-CEM leukemia): 1290 nM
TGI (CCRF-CEM leukemia): 14 µM
GI50 (COLO 205 colon): 831 nM
TGI (COLO 205 colon): 2.45 µM
GI50 (EKVX NSCLC): 1920 nM
TGI (EKVX NSCLC): 5.24 µM
GI50 (HCC-2998 colon): 1540 nM
TGI (HCC-2998 colon): 4.78 µM
GI50 (HOP-92 NSCLC): 2350 nM
TGI (HOP-92 NSCLC): 6.12 µM
GI50 (NCI-H23 lung): 1360 nM
TGI (NCI-H23 lung): 4.35 µM
GI50 (OVCAR-5 ovarian): 2300 nM
TGI (OVCAR-5 ovarian): 6.13 µM
GI50 (SF-295 CNS): 1360 nM
TGI (SF-295 CNS): 3.83 µM
GI50 (SF-539 CNS): 1770 nM
TGI (SF-539 CNS): 4.36 µM
GI50 (UACC-257 melanoma): 758 nM
TGI (UACC-257 melanoma): 2.08 µM
